Consider 89 molecules from a melting point compilation (Tetko et al.; mined from patent text by program, amines drawn as free bases though some values may be those of a salt).

A value given as a limit tells only on which side of the number the result lay.

`O=C(NC1(COc2ccc(Br)cc2)COC1)OCc1ccccc1` came in with a melting point of 101 to 103 °C.

For the molecule `CCCc1ccc(C2c3c(C)cc(C)c(C)c3OC2(C)C)cc1` (centres undefined), the melting point was 69 to 70 °C.

The molecule `CCCc1c(OCc2cccc(C(=O)O)c2OCC)ccc(C(C)=O)c1O` displayed a melting point of 154 to 156 °C. Consider `C=C1C[C@]2(C)C(=O)CC[C@H]2[C@@H]2CCC3=CC(=O)CC[C@]3(C)[C@@H]12`, for which the melting point was in the range of 157 to 160 °C.

Take `C=CCc1cc2c(c(CC=C)c1O)CCC(=O)N2CC(O)CC` (centres undefined): the melting point lay in the range of 115 to 116 °C. As for `C#CC(C)(C)c1cc(NC(=O)NC)no1`, the melting point was in the range of 99 to 100 °C. To `CCCCNC(=O)NS(=O)(=O)c1ccccc1S(=O)(=O)C(C)C` belongs 164 to 166 °C; to `Clc1cc2c(cc1Cn1c(C3OCCO3)nc(Br)c1Br)OCO2`, 188 °C; to `CC(C)(C)OC(=O)N1CCC(Nc2nc3ccccc3n2Cc2cnc(CO)o2)CC1`, 132 °C. The same measure for `CC(C)c1cc(Cl)cc2c1OC(C(F)(F)F)C(C(=O)O)=C2` (centres undefined): 185 to 189 °C; for `O=C(O)C1CCN(c2nnc(NCc3ccc4c(c3)OCO4)c3cnccc23)CC1`: 205 to 206 °C.

With `CC(C)c1cc(-c2ccc3c(c2)OCO3)nc2[nH]nc(N)c12`, the melting point is 184 to 186 °C. The same measure for `Cc1c[nH]c(C)c1CCC(=O)O`: 134 to 136 °C; for `Oc1ccc2c(c1)C[C@H](O)[C@H](O)C2` (relative stereo): 193 to 196 °C. To `Cc1ccc(-c2cc3ccc(C(=O)O)cc3o2)cc1` belongs 270 to 272 °C; to `CNC(=O)c1cn(C)c2cc(Cl)ccc2c1=O`, 260 to 263 °C. To `COc1cc(-c2cc(C(C)C)nn2C)cc2oc(=O)c(C)c(C)c12` belongs 125 to 126 °C; to `O=c1c2c(c1=O)N(CCP(=O)(O)O)CC(O)CN2` (centres undefined), 215 to 218 °C; to `CC12CCC(=O)C(CSc3ccccc3)=C1CCC1C2CCC2(C)C1CCC2(C)O` (centres undefined), 123 to 130 °C. In turn, `O=C(CBr)CN1C(=O)c2ccccc2C1=O` gave a melting point of 139 to 141 °C. The same measure for `CC(=O)OC1C(Oc2cccc(O)c2C(=O)CCc2ccc3occc3c2)OC(CO)C(O)C1O` (centres undefined): 152 to 156 °C; for `CCCc1ccc(CCc2ccc(-c3ccc(F)cc3)cc2)cc1`: 97 °C.

Molecule `COc1ccc(CCNC(=O)C23CC4CC(CC(C4)C2)C3)cc1OC` displayed a melting point of 132 to 133 °C. The same measure for `O=[N+]([O-])c1cncnc1O`: 300 °C; for `O=C(O)c1ccc(OCCNC(=O)C2Cc3ccccc3N2S(=O)(=O)c2ccc(-c3ccc(F)cc3)cc2)cc1F` (centres undefined): 109 to 113 °C. To `NNC(=O)C(Cl)c1cccc(Cl)n1` (centres undefined) belongs 176 to 177 °C; to `COC(=O)COCCOc1ccc(N)cc1`, 51 to 52.5 °C. The same measure for `Clc1ccc(CN2CC3(COc4cc5c(cc43)OCO5)c3ccccc32)o1` (centres undefined): 148 to 150 °C; for `Brc1ccc(-c2cc3nccnc3[nH]2)cc1`: 326 to 329 °C; for `Cc1c(OCC(F)(F)C(F)(F)F)ccnc1CSc1nc2ccccc2[nH]1`: 145 to 146 °C. The molecule `COc1cc(C(=O)NCc2ccc3c(c2)C(=C2CCN(C)CC2)c2ccccc2C=C3)cc(OC)c1OC` came in with a melting point of 200 to 202 °C.

With `O=C(Nc1cccc(Br)c1)c1ccccc1SSc1ccccc1C(=O)Nc1cccc(Br)c1`, the melting point fell in the range of 194 to 196 °C. To `O=C1C(=O)c2ccccc2C2=C1SCC1(CCCN(CC(O)Cc3ccccc3)C1)O2` (centres undefined) belongs 59 to 60 °C; to `CS(=O)(=O)c1ccc(-n2nc(C(F)(F)F)cc2-c2ccc(-c3cscn3)c(F)c2)cc1`, 176 to 178 °C; to `Nc1ccc2c(c1)c(-c1ccc(CO)o1)nn2Cc1ccccc1`, 156 °C. The same measure for `CC(=O)c1ccc(O)c(CC#N)c1`: 154 to 168 °C; for `O=C(Nc1ccc(C(=O)O)cc1)NN1CC=CCC1`: over 240 °C.

As to `CN1C2CCCC1CC(NC(=O)c1cccc3oc(-c4ccc(Cl)cc4)nc13)C2` (centres undefined), the melting point lay in the range of 185 to 187 °C. The molecule `O=C(O)Cc1c(Cl)nc(-c2ccccc2)n1Cc1ccccc1` displayed a melting point of 161 to 163 °C. The same measure for `N=C(N)NCCCCCC(=O)Oc1ccc2cc(C(=N)N)ccc2c1`: 136 °C; for `O=c1nc(NCc2ccc(Cl)cc2)n2c3c1cnn3C(c1cccc(C(F)(F)F)c1)=CC2`: 281 to 282 °C; for `CC(=O)Oc1ccc(-c2cnc(-c3ccccc3)nc2Cl)cc1OC(C)=O`: 152 to 153 °C. The same measure for `O=c1c(CCO)cnc2c3ccccc3ccn12`: 185 to 187 °C; for `O=C(N[C@@H](Cc1ccccc1)C(=O)COC(=O)N1CCC[C@H]1C(=O)O)c1ccccc1`: 55 to 65 °C. The molecule `COC(=O)NC[C@H]1CN(c2ccc(-c3nc(Cn4cccn4)cs3)c(F)c2)C(=O)O1` yielded a melting point of 142 to 144 °C. The same measure for `CN1CC(CCCCN2CCN(c3ccccc3O)CC2)OC1=O` (centres undefined): 106 to 110 °C; for `COC(=O)c1ccc(OCC2CC(=O)N(c3ccc(C)cc3)C2)cc1` (centres undefined): 110 to 112 °C; for `CCOC(=O)CCc1ccc(OCc2nc(-c3ccco3)oc2C)c(OC)c1`: 88 to 89 °C. The same measure for `CCC1(CC)C(=O)ON(C(=O)c2cc(OC)c(OC)c(OC)c2)C1=O`: 103 to 106 °C. The same measure for `C=Cc1cc(CNC(=O)Nc2ccc(C(C)(C)C)cc2)cc(F)c1NS(C)(=O)=O`: 167 to 170 °C. As for `NC(=O)Cc1c[nH]c2ccc(OCc3ccccc3)cc12`, the melting point lay within 137 to 140 °C. The molecule `O=Cc1nn(-c2ccc(Br)cc2)c2c1CCCC2` had a melting point of 120 to 121 °C.

The molecule `CC(C)n1nc(-c2cc(C(=O)N3CCN(C)CC3)cnc2-c2ccccc2)ccc1=O` returned a melting point of 165 to 166 °C. `Nc1nc(-c2cc(Cl)ccc2Cl)nc(N(CCO)CCO)n1` came in with a melting point of 199 to 200 °C. `CS(=O)(=O)c1ccc(-c2cnn(CC(F)(F)F)c(=O)c2Oc2cc(C(F)(F)F)ccc2F)cc1` displayed a melting point of 133 to 135 °C. `CNS(=O)(=O)c1cc(-n2nc3ccc(Cl)cn3c2=O)c(F)cc1C#N` returned a melting point of 154 to 157 °C.

`O=C(O)COc1cccc2c1CCc1sc(SCc3ccc(-c4ccccc4)cc3)nc1-2` displayed a melting point of 198 to 200 °C.

The molecule `C[C@H](CO)Nc1nc(SCc2ccno2)nc2[nH]c(=O)cnc12` came in with a melting point of 191 to 194 °C. The molecule `Nc1nc(N)nc(-c2ccc(C#Cc3ccccc3)cc2)n1` displayed a melting point of 248 to 249 °C. The same measure for `COC(CCCCC(N)=O)OC`: 57 °C; for `FC(F)(F)c1cccc(-n2cnnc2Oc2ccccc2)c1`: 83 to 85 °C; for `COc1cc(C2=Nc3ccc(N4CCOCC4)cc3C(=O)C2)ccc1O`: 297 to 299 °C. `O=C(N[C@@H](Cc1ccccc1)C(=O)N[C@H](CO)Cc1c[nH]c2ccccc12)OCc1ccccc1` registered a melting point of 154 to 156 °C. Regarding `CN(C)c1ccc(C2(c3ccc(N(C)C)cc3N(C)C)OC(=O)c3ccc(N(C)C)cc32)cc1` (centres undefined), the melting point lay within 222 to 225 °C. The same measure for `O=c1[nH]c2ccc(C3=NOC(CN4CCC(O)(Cc5ccc(F)cc5)CC4)C3)cc2o1` (centres undefined): 195 to 204 °C; for `Cc1c2c(c(C)c3c1NC(C)(C)C3)OC(C)(CI)C2` (centres undefined): 100 to 104 °C; for `NC(=S)Nc1ccc(Br)cn1`: 242 to 243 °C.

On to `O=c1cc(Oc2c(Cl)cccc2Cl)c2cc(OC(F)F)ccc2o1`, for which the melting point was 145 to 148 °C. The same measure for `Cc1c(C(=O)N(C)c2ccccc2)nc2n1CCc1ccccc1C2OC1CCN(C)CC1` (centres undefined): 75 °C; for `C(=C\c1cccs1)/c1nc(COc2ccc(CCCn3ccnc3)cc2)co1`: 131 to 132 °C. To `O=C1Cc2c(Cl)cccc2Sc2c(F)cccc21` belongs 128 to 130 °C; to `O=Cc1ccc(C=CC(=O)N2CCc3c([nH]c4ccccc34)C2c2ccc3c(c2)OCO3)cc1` (centres undefined), 208 °C. As for `O=C1CCCC(=O)C1C(=O)c1ccc(C(F)(F)F)c(N2CCSCC2)n1`, the melting point is 106 °C. To `CCCCNC(=O)NS(=O)(=O)c1ccccc1-c1ccc(C(=O)OC)o1` belongs 145 to 148 °C; to `O=C(c1ccccc1)c1cccc2c1SCC2C(=O)O` (centres undefined), 153 to 156 °C; to `NC(=O)c1ccc2c(c1)C1(COc3cc4c(cc31)OCCO4)C(=O)N2Cc1ccccn1` (centres undefined), 220 to 222 °C. With `CC1(C)CC(O)c2cc(Br)ccc2O1` (centres undefined), the melting point fell in the range of 97 to 99 °C. For `O=C(Nc1ccc(OCCN2CCOCC2)c2ccccc12)c1cc(F)cc(N2CCCCC2)c1`, the melting point is 150 to 151 °C. Molecule `ON=Cc1c(Br)ccc2c1OCO2` returned a melting point of 239 to 240 °C. The same measure for `CC(C)(C)NC(=O)N(Cc1ccccc1)CC(O)C(Cc1ccccc1)NC(=O)C(CC(N)=O)NC(=O)c1ccc2ccccc2n1` (centres undefined): 110 to 112 °C; for `O=C(O)C1=C(Sc2ccccc2)CC2CC(=O)C12` (centres undefined): 213 to 215 °C; for `N#CC(C(=O)N1CCOCC1)=C1Nc2ccccc2O1`: 217 to 219 °C. The same measure for `Cn1cnc2cc(NC(=O)c3cc4cc(F)cnc4n3Cc3cccc(F)c3)ccc21`: 266 to 268 °C; for `O=C1C(Cc2ccccc2)NC(=S)N1c1nc2ccc(F)cc2s1` (centres undefined): 223 to 224 °C.

Consider `CCN1C(c2nnc(-c3ccccc3)o2)=C(OC(=O)C2CCCC2)c2ccccc2S1(=O)=O`, for which the melting point lay within 194 to 196 °C.

In turn, `O=C(O)CCCc1cc2cc(Cl)ccc2n1S(=O)(=O)c1ccccn1` yielded a melting point of 192 °C. With `CCCc1c(OCc2cccc(C(=O)NCCCc3cccnc3)c2)ccc(C(C)=O)c1O`, the melting point lay within 110 to 112 °C. To `CSc1ccc(Oc2ccc(N)cc2)c(C)c1` belongs 162 °C; to `O=C(O)CCCC(=O)N[C@@H](Cc1ccccc1)C(=O)NCCCCNc1ncccn1`, 186 °C.
